Assay results reported in patent US10689354B2, “Aminoazole derivative” (Teijin Pharma Limited, priority 2015, dated 2020).

Target: T1, androgen receptor (AR-LBD) (Rattus norvegicus, UniProt P15207)
T1 construct: 5 μL of 2×AR-LBD/Fluoromone AL Red Complex contained in the kit; purchased Invitrogen
T1 sequence (P15207 651-882 limits assumed): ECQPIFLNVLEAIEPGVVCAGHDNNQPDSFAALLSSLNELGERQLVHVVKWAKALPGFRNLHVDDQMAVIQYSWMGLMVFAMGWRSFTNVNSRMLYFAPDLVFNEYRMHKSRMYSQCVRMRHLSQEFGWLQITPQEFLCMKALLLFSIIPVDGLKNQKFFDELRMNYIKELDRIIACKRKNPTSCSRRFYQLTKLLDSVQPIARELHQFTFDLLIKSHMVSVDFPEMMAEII
Test: Evaluation of androgen receptor affinity (PolarScreen Androgen Receptor Competitor Assay Kit, Red; fluorescence polarization)
Conditions: 22° C. for 5 hours, relative to binding rate of 1 μM DHT, read-out: AR affinity (pEC50) (converted)
Description: Evaluation of an Androgen Receptor Affinity
To examine the interaction of a compound with an androgen receptor, evaluation was carried out in accordance with the following procedure using PolarScreen™ Androgen Receptor Competitor Assay Kit, Red (Invitrogen). To 2 wells each of a 384 well black plate was added 5 μL of the compound solution. To each well was added 5 μL of 2×AR-LBD/Fluoromone AL Red Complex contained in the kit and the samples were reacted at 22° C. for 5 hours. After 5 hours of the reaction, fluorescence polarization was measured and the affinity was evaluated. The affinity of the compound was determined by comparing to the binding rate of 1 μM of dihydrotestosterone (DHT), and quantified the logarithm value (pEC50) of reciprocal value of the effective concentration of the compound which is equal to 50% of the binding rate by applying a 4 parameter goodness-of-fit calculation.

Row | EC50 | Compound
1 | 1260 nM | Cc1sc(N(Cc2ccc(OCC(=O)N3CCOCC3)cc2)c2ccc(C#N)cc2)nc1C(=O)NS(C)(=O)=O [Compound 573, 2-[4-cyano-N-[[4-(2-morpholino-2-oxo-ethoxy)phenyl]methyl]anilino]-5-methyl-N-methylsulfonyl-thiazole-4-carboxamide]
2 | > 2000 nM | Cc1sc(N(CCN2CCCC2=O)c2ccc(C#N)cc2)nc1C(=O)NS(C)(=O)=O [Compound 137, 2-[4-cyano-N-[2-(2-oxopyrrolidin-1-yl)ethyl]anilino]-5-methyl-N-methylsulfonyl-thiazole-4-carboxamide]
3 | > 2000 nM | COCCOc1cccc(N(Cc2ccccc2)c2nc(C(=O)NS(C)(=O)=O)c(C)s2)c1 [Compound 398, 2-[N-benzyl-3-(2-methoxyethoxy)anilino]-5-methyl-N-methylsulfonyl-thiazole-4-carboxamide]
4 | 631 nM | Cc1sc(N(Cc2ccc(CO)cc2)c2ccc(C#N)cc2)nc1C(=O)NS(C)(=O)=O [Compound 356, 2-[4-cyano-N-[[4-(hydroxymethyl)phenyl]methyl]anilino]-5-methyl-N-methylsulfonyl-thiazole-4-carboxamide]
5 | > 2000 nM | Cc1sc(N(Cc2ccccc2)CC2(c3ccccc3)CC2)nc1C(=O)NS(C)(=O)=O [Example 304, 2-[benzyl-[(1-phenylcyclopropyl)methyl]amino]-5-methyl-N-methylsulfonyl-thiazole-4-carboxamide]
6 | > 2000 nM | Cc1sc(N(Cc2ccccc2)c2cccc3ccccc23)nc1C(=O)NS(C)(=O)=O [Example 227, 2-[benzyl(1-naphthyl)amino]-5-methyl-N-methylsulfonyl-thiazole-4-carboxamide]
7 | 158 nM | Cc1ccccc1CN(c1ccc(C#N)cc1)c1nc(C(=O)NS(C)(=O)=O)c(Br)s1 [Example 264, 5-bromo-2-[4-cyano-N-(o-tolylmethyl)anilino]-N-methylsulfonyl-thiazole-4-carboxamide]
8 | > 2000 nM | Cc1sc(N(CC(O)c2ccccc2)c2ccc(C#N)cc2)nc1C(=O)NS(C)(=O)=O (stereo not shown) [Compound 468, 2-(4-cyano-N-(2-hydroxy-2-phenyl-ethyl)anilino)-5-methyl-N-methylsulfonyl-thiazole-4-carboxamide]
9 | > 2000 nM | Cc1sc(N(CCC2CCN(C(=O)OC(C)(C)C)CC2)Cc2ccccc2)nc1C(=O)NS(C)(=O)=O [Example 319, tert-butyl 4-[2-[benzyl-[5-methyl-4-(methylsulfonylcarbamoyl)thiazol-2-yl]amino]ethyl]piperidine-1-carboxylate]
10 | 501 nM | CO[C@@H]1CCC[C@H](CN(c2ccc(C#N)cc2)c2nc(C(=O)NS(C)(=O)=O)c(C)s2)C1 (racemic) [Compound 349, 2-[4-cyano-N-[[cis-3-methoxycyclohexyl]methyl]anilino]-5-methyl-N-methylsulfonyl-thiazole-4-carboxamide]
11 | > 2000 nM | Cc1sc(N(CCn2nccn2)Cc2ccccc2)nc1C(=O)NS(C)(=O)=O [Compound 679, 2-[benzyl-[2-(triazol-2-yl)ethyl]amino]-5-methyl-N-methylsulfonyl-thiazole-4-carboxamide]
12 | > 2000 nM | Cc1sc(N(CCc2cccc3ccccc23)Cc2ccccc2)nc1C(=O)NS(C)(=O)=O [Example 314, 2-[benzyl-[2-(1-naphthyl)ethyl]amino]-5-methyl-N-methylsulfonyl-thiazole-4-carboxamide]
13 | > 2000 nM | Cc1sc(N(Cc2cc(C(F)(F)F)ccc2C(F)(F)F)c2ccc(C#N)cc2)nc1C(=O)NS(C)(=O)=O [Compound 415, 2-[N-[[2,5-bis(trifluoromethyl)phenyl]methyl]-4-cyano-anilino]-5-methyl-N-methylsulfonyl-thiazole-4-carboxamide]
14 | 1580 nM | Cc1sc(N(Cc2ccc(OCCN3CCOCC3)cc2)c2ccc(C#N)cc2)nc1C(=O)NS(C)(=O)=O [Compound 572, 2-[4-cyano-N-[[4-(2-morpholinoethoxy)phenyl]methyl]anilino]-5-methyl-N-methylsulfonyl-thiazole-4-carboxamide]
15 | > 2000 nM | Cc1sc(N(Cc2ccccc2)c2cccc(CO)c2)nc1C(=O)NS(C)(=O)=O [Example 229, 2-[N-benzyl-3-(hydroxymethyl)anilino]-5-methyl-N-methylsulfonyl-thiazole-4-carboxamide]
16 | > 2000 nM | Cc1sc(N(CC(=O)NC2CCCCC2)c2ccc(C#N)cc2)nc1C(=O)NS(C)(=O)=O [Compound 423, 2-(4-cyano-N-[2-(cyclohexylamino)-2-oxo-ethyl]anilino)-5-methyl-N-methylsulfonyl-thiazole-4-carboxamide]
17 | > 2000 nM | Cc1sc(N(Cc2ccccc2)c2ccc(CCOCc3ccccc3)cc2)nc1C(=O)NS(C)(=O)=O [Example 235, 2-[N-benzyl-4-(2-benzyloxyethyl)anilino]-5-methyl-N-methylsulfonyl-thiazole-4-carboxamide]

Row | EC50 | Compound
18 | > 2000 nM | Cc1sc(N(Cc2ccccc2)Cc2ccccc2C#N)nc1C(=O)NS(C)(=O)=O [Example 291, 2-[benzyl-[(2-cyanophenyl)methyl]amino]-5-methyl-N-methylsulfonyl-thiazole-4-carboxamide]
19 | > 2000 nM | Cc1sc(N(CCn2cccn2)Cc2ccccc2)nc1C(=O)NS(C)(=O)=O [Compound 688, 2-[benzyl(2-pyrazol-1-ylethyl)amino]-5-methyl-N-methylsulfonyl-thiazole-4-carboxamide]
20 | 631 nM | Cc1sc(N(CCc2c[nH]c3ccccc23)Cc2ccccc2)nc1C(=O)NS(C)(=O)=O [Compound 320, 2-[benzyl-[2-(1H-indol-3-yl)ethyl]amino]-5-methyl-N-methylsulfonyl-thiazole-4-carboxamide]
21 | > 2000 nM | Cc1sc(N(C)Cc2ccccc2)nc1C(=O)NS(C)(=O)=O [Example 292, 2-[benzyl(methyl)amino]-5-methyl-N-methylsulfonyl-thiazole-4-carboxamide]
22 | > 2000 nM | Cc1sc(N(CCC2CCNCC2)Cc2ccccc2)nc1C(=O)NS(C)(=O)=O [Compound 705, 2-[benzyl-[2-(4-piperidyl)ethyl]amino]-5-methyl-N-methylsulfonyl-thiazole-4-carboxamide]
23 | > 2000 nM | Cc1sc(N(c2ccc(C#N)cc2)[C@@H](CO)c2ccccc2)nc1C(=O)NS(C)(=O)=O [Compound 483, 2-(4-cyano-N-[(1R)-2-hydroxy-1-phenyl-ethyl]anilino)-5-methyl-N-methylsulfonyl-thiazole-4-carboxamide]
24 | > 2000 nM | Cc1sc(N(CCc2ccccn2)c2ccc(C#N)cc2)nc1C(=O)NS(C)(=O)=O [Compound 130, 2-[4-cyano-N-[2-(2-pyridyl)ethyl]anilino]-5-methyl-N-methylsulfonyl-thiazole-4-carboxamide]
25 | > 2000 nM | Cc1sc(N(CCn2cncn2)Cc2ccccc2)nc1C(=O)NS(C)(=O)=O [Compound 680, 2-[benzyl-[2-(1,2,4-triazol-1-yl)ethyl]amino]-5-methyl-N-methylsulfonyl-thiazole-4-carboxamide]
26 | 1260 nM | Cc1sc(N(C[C@H]2CCC[C@@H](CO)C2)c2ccc(C#N)cc2)nc1C(=O)NS(C)(=O)=O (racemic) [Compound 347, 2-[4-cyano-N-[[cis-3-(hydroxymethyl)cyclohexyl]methyl]anilino]-5-methyl-N-methylsulfonyl-thiazole-4-carboxamide]
27 | > 2000 nM | Cc1sc(N(Cc2ccccc2)c2cccc(OC(F)(F)F)c2)nc1C(=O)NS(C)(=O)=O [Compound 35, 2-[N-benzyl-3-(trifluoromethoxy)anilino]-5-methyl-N-methylsulfonyl-thiazole-4-carboxamide]
28 | 1000 nM | Cc1sc(N(Cc2cccc3cnccc23)c2ccc(C#N)cc2)nc1C(=O)NS(C)(=O)=O [Compound 402, 2-[4-cyano-N-(5-isoquinolylmethyl)anilino]-5-methyl-N-methylsulfonyl-thiazole-4-carboxamide]
29 | 31.6 nM | Cc1cccc(CN(c2ccc(C#N)cc2)c2nc(C(=O)NS(C)(=O)=O)c(Cl)s2)c1 [Example 266, 5-chloro-2-[4-cyano-N-(m-tolylmethyl)anilino]-N-methylsulfonyl-thiazole-4-carboxamide]
30 | > 2000 nM | Cc1sc(N(CC2CCCCO2)c2ccc(C#N)cc2)nc1C(=O)NS(C)(=O)=O (stereo not shown) [Compound 345, 2-[4-cyano-N-(tetrahydropyran-2-ylmethyl)anilino]-5-methyl-N-methylsulfonyl-thiazole-4-carboxamide]
31 | > 2000 nM | Cc1sc(N(Cc2ccccc2)Cc2ccccc2)nc1C(=O)NS(C)(=O)=O [Example 288, 2-(dibenzylamino)-5-methyl-N-methylsulfonyl-thiazole-4-carboxamide]
32 | > 2000 nM | Cc1sc(N(CCC2CC2)Cc2ccccc2)nc1C(=O)NS(C)(=O)=O [Compound 687, 2-[benzyl(2-cyclopropylethyl)amino]-5-methyl-N-methylsulfonyl-thiazole-4-carboxamide]
33 | > 2000 nM | Cc1ncsc1CCN(Cc1ccccc1)c1nc(C(=O)NS(C)(=O)=O)c(C)s1 [Example 311, 2-[benzyl-[2-(4-methylthiazol-5-yl)ethyl]amino]-5-methyl-N-methylsulfonyl-thiazole-4-carboxamide]
34 | > 2000 nM | Cc1sc(N(Cc2ccccc2C#N)c2ccc(C#N)cc2)nc1C(=O)NS(C)(=O)=O [Compound 8, 2-[4-cyano-N-[(2-cyanophenyl)methyl]anilino]-5-methyl-N-methylsulfonyl-thiazole-4-carboxamide]
